According to patent publication US10709709B2, “Substituted carbonucleoside derivatives useful as anticancer agents” (Pfizer Inc., priority 2016, dated 2020):

target: PRMT5/MEP50 protein complex (Homo sapiens (Human), UniProt O14744); test: PRMT5 biochemical assay (3H-SAM methylation of H4(1-21) peptide, filter plate scintillation); conditions: 10 nM PRMT5/MEP50 complex, 200 nM H4(1-21) peptide, 1 uM SAM, 25 minute incubation at room temperature
Description: Biochemical Assay Methods
Compounds were solubilized in DMSO and serially diluted, using 3-fold dilutions, into 100% DMSO at a concentration 50-fold greater than the desired assay concentration. Following dilution, 1 ul was added to an empty 96-well microtiter plate. PRMT5/MEP50 protein complex was combined with H4(1-21) peptide ([…]) in PRMT5 assay buffer (50 mM Tris pH 8.5, 50 mM NaCl, 5 mM MgCl2, 1 mM EDTA, 1 mM TCEP) and 44 ul was added to the microtiter plate containing compound. S-Adenosyl-L-methionine (SAM) was prepared by combining ^3H labelled SAM with unlabelled SAM in PRMT5 assay buffer such that the final SAM concentration was 10 uM and the specific activity was 0.2 uCi/ul. The reaction was initiated by adding 5 ul of SAM stock to the microtiter plate. The final reaction conditions were 10 nM PRMT5/MEP50 complex, 200 nM peptide and 1 uM SAM. Following a 25 minute incubation at room temperature, the reaction was stopped with the addition of 100 uL of 20% TCA. The 3H-peptide product was captured using a 96-well filter plate (MSIPN4B, Millipore) and washed 5 times with PBS buffer. Scintillation fluid (100 ul) was added to the dried filter plate and counted in a liquid scintillation counter. IC50 values were determined by fitting the data to the standard 4-parameter dose response equation using Pfizer proprietary software.
Results for the biochemical assay of examples are summarized in Table 1, shown as IC50 values in μM.

Chain of PRMT5/MEP50 protein complex (O14744 other isoform, or with tags, fused parts or gaps): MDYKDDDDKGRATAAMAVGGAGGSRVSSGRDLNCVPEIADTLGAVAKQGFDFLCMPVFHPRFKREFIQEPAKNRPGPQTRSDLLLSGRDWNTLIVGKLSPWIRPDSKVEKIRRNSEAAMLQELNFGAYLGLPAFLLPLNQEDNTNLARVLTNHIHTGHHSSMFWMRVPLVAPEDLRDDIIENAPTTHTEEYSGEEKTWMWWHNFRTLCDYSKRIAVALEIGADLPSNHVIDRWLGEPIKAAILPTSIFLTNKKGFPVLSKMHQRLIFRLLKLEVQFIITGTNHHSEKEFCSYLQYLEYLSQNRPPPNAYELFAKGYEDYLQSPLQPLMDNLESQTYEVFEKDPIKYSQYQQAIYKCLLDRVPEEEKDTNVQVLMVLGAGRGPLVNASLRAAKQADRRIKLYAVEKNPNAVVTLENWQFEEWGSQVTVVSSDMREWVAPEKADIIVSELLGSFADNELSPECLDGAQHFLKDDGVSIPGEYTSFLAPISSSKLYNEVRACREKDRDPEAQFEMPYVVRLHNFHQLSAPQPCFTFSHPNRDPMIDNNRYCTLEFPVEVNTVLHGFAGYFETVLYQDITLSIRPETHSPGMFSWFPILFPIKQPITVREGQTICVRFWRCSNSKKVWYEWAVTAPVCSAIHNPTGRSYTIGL
Chain of PRMT5/MEP50 protein complex (Q9BQA1 whole entry partner): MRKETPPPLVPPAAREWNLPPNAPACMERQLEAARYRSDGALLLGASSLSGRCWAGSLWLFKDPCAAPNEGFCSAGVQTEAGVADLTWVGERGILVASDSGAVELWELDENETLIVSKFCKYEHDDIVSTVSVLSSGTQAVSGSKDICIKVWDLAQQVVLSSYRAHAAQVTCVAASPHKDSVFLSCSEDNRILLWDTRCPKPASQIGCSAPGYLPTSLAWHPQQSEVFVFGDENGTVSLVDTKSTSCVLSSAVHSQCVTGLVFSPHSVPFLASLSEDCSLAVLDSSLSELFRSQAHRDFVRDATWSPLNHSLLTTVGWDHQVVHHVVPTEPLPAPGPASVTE

IC50 [nM]	Compound
2700	Cc1nccc(N(C)[C@@H]2C[C@H]([C@@H](O)c3ccc(F)c(F)c3)[C@@H](O)[C@H]2O)n1 [Example 36, (1S,2R,3R,5R)-3-[(R)-(3,4-difluorophenyl)(hydroxy)methyl]-5-[methyl(2-methylpyrimidin-4-yl)amino] cyclopentane-1,2-diol]
15700	CN(c1ncnc(N)n1)[C@@H]1C[C@H]([C@@H](O)c2ccc(F)c(F)c2)[C@@H](O)[C@H]1O [Example 38, (1R,2S,3R,5R)-3-[(4-amino-1,3,5-triazin-2-yl)(methyl)amino]-5-[(R)-(3,4-difluorophenyl)(hydroxy)methyl]cyclopentane-1,2-diol]
114	CN(c1ccnc(N)n1)[C@@H]1C[C@H]([C@H](O)c2ccc(F)c(F)c2)[C@@H](O)[C@H]1O [Example 39, (1R,2S,3R,5R)-3-[(2-aminopyrimidin-4-yl)(methyl)amino]-5-[(S)-(3,4-difluorophenyl)(hydroxy)methyl] cyclopentane-1,2-diol]
46	Cc1nc(N)nc(N(C)[C@@H]2C[C@H]([C@H](O)c3ccc(F)c(F)c3)[C@@H](O)[C@H]2O)n1 [Example 41, (1R,2S,3R,5R)-3-[(4-amino-6-methyl-1,3,5-triazin-2-yl)(methyl)amino]-5-[(S)-(3,4-difluorophenyl) (hydroxy)methyl]cyclopentane-1,2-diol]
105	Cc1nc(N)nc2c1ccn2[C@@H]1C[C@H]([C@@H](O)c2ccc(F)c(F)c2)[C@@H](O)[C@H]1O [Example 49, (1R,2S,3R,5R)-3-(2-amino-4-methyl-7H-pyrrolo[2,3-d]pyrimidin-7-yl)-5-[(R)-(3,4-difluorophenyl)(hydroxy)methyl]cyclopentane-1,2-diol]
18900	Cc1ncnc2c1ccn2[C@@H]1C[C@H](C(F)(CN)c2ccc(F)cc2)[C@@H](O)[C@H]1O (stereo partly drawn) [Example 50, (1S,2R,3S,5R)-3-[2-amino-1-fluoro-1-(4-fluorophenyl)ethyl]-5-(4-methyl-7H-pyrrolo[2,3-d]pyrimidin-7-yl)cyclopentane-1,2-diol]
289	Cc1ncnc2c1ccn2[C@@H]1C[C@H](Cc2ccc(F)cc2)[C@@H](O)[C@H]1O [Example 58, (1S,2R,3S,5R)-3-(4-fluorobenzyl)-5-(4-methyl-7H-pyrrolo[2,3-d]pyrimidin-7-yl)cyclopentane-1,2-diol]
1060	Cc1ncnc2c1ccn2[C@H]1C[C@@H](Oc2ccccc2CN)[C@H](O)[C@@H]1O [Example 63, (1R,2R,3R,5S)-3-(2-(aminomethyl)phenoxy)-5-(4-methyl-7H-pyrrolo[2,3-d]pyrimidin-7-yl)cyclopentane-1,2-diol]

Second part, the molecule before the results:

Compound	IC50 [nM]
CN(c1ncnc(N)n1)[C@@H]1C[C@H]([C@H](O)c2ccc(F)c(F)c2)[C@@H](O)[C@H]1O [Example 37, (1R,2S,3R,5R)-3-[(4-amino-1,3,5-triazin-2-yl)(methyl)amino]-5-[(S)-(3,4-difluorophenyl) (hydroxy)methyl]cyclopentane-1,2-diol]	266
CN(c1ccnc(N)n1)[C@@H]1C[C@H]([C@@H](O)c2ccc(F)c(F)c2)[C@@H](O)[C@H]1O [Example 40, (1R,2S,3R,5R)-3-[(2-aminopyrimidin-4-yl)(methyl)amino]-5-[(R)-(3,4 difluorophenyl)(hydroxy)methyl] cyclopentane-1,2-diol]	2040
Cc1nc(N)nc(N(C)[C@@H]2C[C@H]([C@@H](O)c3ccc(F)c(F)c3)[C@@H](O)[C@H]2O)n1 [Example 42, (1R,2S,3R,5R)-3-[(4-amino-6-methyl-1,3,5-triazin-2-yl)(methyl)amino]-5-[(R)-(3,4-difluorophenyl) (hydroxy)methyl]cyclopentane-1,2-diol]	1390
CN(c1cc(N)ncn1)[C@@H]1C[C@H]([C@H](O)c2ccc(F)c(F)c2)[C@@H](O)[C@H]1O [Example 43, (1R,2S,3R,5R)-3-[(6-aminopyrimidin-4-yl)(methyl)amino]-5-[(S)-(3,4-difluorophenyl) (hydroxy)methyl]cyclopentane-1,2-diol]	879
CN(c1cc(N)ncn1)[C@@H]1C[C@H]([C@@H](O)c2ccc(F)c(F)c2)[C@@H](O)[C@H]1O [Example 44, (1R,2S,3R,5R)-3-[(6-aminopyrimidin-4-yl)(methyl)amino]-5-[(R)-(3,4-difluorophenyl)(hydroxy)methyl]cyclopentane-1,2-diol]	17000
Cc1ncnc(N(C)[C@@H]2C[C@H]([C@H](O)c3ccc(F)c(F)c3)[C@@H](O)[C@H]2O)n1 [Example 46, (1S,2R,3R,5R)-3-[(S)-(3,4-difluorophenyl)(hydroxy)methyl]-5-[methyl(4-methyl-1,3,5-triazin-2-yl)amino]cyclopentane-1,2-diol]	297
Cc1ncnc(N(C)[C@@H]2C[C@H]([C@@H](O)c3ccc(F)c(F)c3)[C@@H](O)[C@H]2O)n1 [Example 47, (1S,2R,3R,5R)-3-[(R)-(3,4-difluorophenyl)(hydroxy)methyl]-5-[methyl(4-methyl-1,3,5-triazin-2-yl)amino]cyclopentane-1,2-diol]	29500
Cc1ncnc2c1ccn2[C@@H]1C[C@H]([C@H](CN)c2ccc(F)cc2)[C@@H](O)[C@H]1O [Example 51, (1S,2R,3R,5R)-3-[(1S)-2-amino-1-(4-fluorophenyl)ethyl]-5-(4-methyl-7H-pyrrolo[2,3-d]pyrimidin-7-yl)cyclopentane-1,2-diol]	676
Cc1ncnc2c1ccn2[C@@H]1C[C@H]([C@@H](CN)c2ccc(F)cc2)[C@@H](O)[C@H]1O [Example 52, (1S,2R,3R,5R)-3-[(1R)-2-amino-1-(4-fluorophenyl)ethyl]-5-(4-methyl-7H-pyrrolo[2,3-d]pyrimidin-7-yl)cyclopentane-1,2-diol]	906
Cc1ncnc2c1ccn2[C@@H]1C[C@H]([C@@H](O)c2ccc(Cl)cc2CN)[C@@H](O)[C@H]1O [Example 54, (1S,2R,3R,5R)-3-((R)-(2-(aminomethyl)-4-chlorophenyl)(hydroxy)methyl)-5-(4-methyl-7H-pyrrolo[2,3-d]pyrimidin-7-yl)cyclopentane-1,2-diol]	126
Cc1ncnc2c1ccn2[C@@H]1C[C@H]([C@@H](O)c2cccc3c2CNCC3)[C@@H](O)[C@H]1O [Example 57, (1S,2R,3R,5R)-3-((R)-hydroxy(1,2,3,4-tetrahydroisoquinolin-8-yl)methyl)-5-(4-methyl-7H-pyrrolo[2,3-d]pyrimidin-7-yl)cyclopentane-1,2-diol]	48
CO[C@H]1C[C@@H](n2ccc3c(C)ncnc32)[C@H](O)[C@@H]1O [Example 60, (1S,2S,3S,5R)-3-methoxy-5-(4-methyl-7H-pyrrolo[2,3-d]pyrimidin-7-yl)cyclopentane-1,2-diol]	> 200000
CO[C@@H]1C[C@H](n2ccc3c(C)ncnc32)[C@@H](O)[C@H]1O [Example 61, (1R,2R,3R,5S)-3-methoxy-5-(4-methyl-7H-pyrrolo[2,3-d]pyrimidin-7-yl)cyclopentane-1,2-diol]	2120
Cc1ncnc2c1ccn2[C@@H]1C[C@H](Oc2ccccc2CN)[C@@H](O)[C@H]1O [Example 62, (1S,2S,3S,5R)-3-(2-(aminomethyl)phenoxy)-5-(4-methyl-7H-pyrrolo[2,3-d]pyrimidin-7-yl)cyclopentane-1,2-diol]	25
Cc1ncnc2c1ccn2[C@@H]1C[C@H](Oc2ccccc2C#N)[C@@H](O)[C@H]1O [Example 64, 2-(((1S,2S,3S,4R)-2,3-dihydroxy-4-(4-methyl-7H-pyrrolo[2,3-d]pyrimidin-7-yl)cyclopentyl)oxy)benzonitrile]	> 200000
